Tested on: conscious spontaneously hypertensive rats
Assay: Radiotelemetric measurement of blood pressure on conscious spontaneously hypertensive rats
Type: in vivo, rat
Conditions: SHR
Text: A commercially available telemetry system from DATA SCIENCES INTERNATIONAL DSI, USA, is employed for the blood pressure measurement on conscious rats described below.
The system consists of 3 main components: • implantable transmitters (Physiotel® telemetry transmitter) • receivers (Physiotel® receiver) which are linked via a multiplexer (DSI Data Exchange Matrix) to a • data acquisition computer.
The telemetry system makes it possible to continuously record blood pressure, heart rate and body motion of conscious animals in their usual habitat.
The investigations are carried out on adult female spontaneously hypertensive rats (SHR Okamoto) with a body weight of >200 g. SHR/NCrl from the Okamoto Kyoto School of Medicine, 1963 were a cross of male Wistar Kyoto rats with highly elevated blood pressure and female rats having a slightly elevated blood pressure and at F13 handed over to the U.S. National Institutes of Health.
After transmitter implantation, the experimental animals are housed singly in type 3 Makrolon cages. They have free access to standard feed and water.
The day/night rhythm in the experimental laboratory is changed by the room lighting at 6.00 am and at 7.00 pm.
The telemetry transmitters TA11 PA-C40 used are surgically implanted under aseptic conditions in the experimental animals at least 14 days before the first experimental use. The animals instrumented in this way can be employed repeatedly after the wound has healed and the implant has settled.
Initiation of anaesthesia gas O2+N2O […] with 5% isofluran in a through-flow vessel.
After the anaesthesia has been initiated, the animal is connected to the anaesthesia mask on a thermal plate and receives 1.8% isofluran for anaesthesia maintenance and is shaved and disinfected over a large area of its abdomen. After the abdominal cavity has been opened along the linea alba, the liquid-filled measuring catheter of the system is inserted into the descending aorta in the cranial direction above the bifurcation and fixed with tissue glue (VetBonD™, 3M). The transmitter housing is fixed intraperitoneally to the abdominal wall muscle, and layered closure of the wound is performed.
An antibiotic (Oxytetracyclin® 10%, 60 mg/kg s.c., 0.06 ml/100 g body weight, Beta-Pharma GmbH & Co, Germany) and an analgesic (Rimadyl®, 4 mg/kg s.c., Pfizer, Germany) are administered postoperatively for prophylaxis of infection.
Unless indicated otherwise, the substances to be investigated are administered orally by gavage in each case to a group of animals (n=6). The test substances are dissolved in suitable solvent mixtures, or suspended in 0.5% strength Tylose, appropriate for an administration volume of 2 ml/kg of body weight.
A solvent-treated group of animals is employed as control.
The telemetry measuring unit present is configured for 24 animals. Each experiment is recorded under an experiment number (Vyear month day).
Each of the instrumented rats living in the system is assigned a separate receiving antenna (1010 Receiver, DSI).
The implanted transmitters can be activated externally by means of an incorporated magnetic switch and are switched to transmission in the run-up to the experiment. The signals emitted can be detected online by a data acquisition system (Dataquest™ A.R.T. for WINDOWS, DSI) and processed accordingly. The data are stored in each case in a file created for this purpose and bearing the experiment number.
In the standard procedure, the following are measured for 10-second periods in each case: • systolic blood pressure (SBP) • diastolic blood pressure (DBP) • mean arterial pressure (MAP) • heart rate (HR) • activity (ACT).
The acquisition of measurements is repeated under computer control at 5-minute intervals. The source data obtained as absolute value are corrected in the diagram with the currently measured barometric pressure (Ambient Pressure Reference Monitor; APR-1) and stored as individual data. […]

**Q.** For CC1(C(F)(F)F)C(=O)Nc2nc(-c3nn(Cc4ccccc4F)c4ncc(F)cc34)nc(NCCC(F)(F)F)c21 (single isomer, unassigned) [Example 1-1, 2-[5-Fluoro-1-(2-fluorobenzyl)-1H-pyrazolo[3,4-b]pyridin-3-yl]-5-methyl-5-(trifluoromethyl)-4-[(3,3,3-trifluoropropyl)amino]-5,7-dihydro-6H-pyrrolo[2,3-d]pyrimidin-6-one], which Mean blood pressure (0.03 mg/kg, 0 hours after administration of substance) is on record?
**A.** 140.3 mmHg

**Q.** And the Mean blood pressure (0.03 mg/kg, 1 hours after administration of substance)?
**A.** 124.4 mmHg

**Q.** And the Mean blood pressure (0.03 mg/kg, 2 hours after administration of substance)?
**A.** 125.2 mmHg

**Q.** And the Mean blood pressure (0.03 mg/kg, 3 hours after administration of substance)?
**A.** 120.6 mmHg

**Q.** What about the Mean blood pressure (0.03 mg/kg, 4 hours after administration of substance) of the same compound?
**A.** 124.2 mmHg

**Q.** And the Mean blood pressure (0.03 mg/kg, 5 hours after administration of substance)?
**A.** 119.2 mmHg

**Q.** What about the Mean blood pressure (0.03 mg/kg, 6 hours after administration of substance) of the same compound?
**A.** 122.4 mmHg

**Q.** And the Mean blood pressure (0.03 mg/kg, 7 hours after administration of substance)?
**A.** 124.8 mmHg

**Q.** What about the Mean blood pressure (0.03 mg/kg, 8 hours after administration of substance) of the same compound?
**A.** 129.0 mmHg

**Q.** What about the Mean blood pressure (0.03 mg/kg, 9 hours after administration of substance) of the same compound?
**A.** 132.2 mmHg

**Q.** What about the Mean blood pressure (0.03 mg/kg, 10 hours after administration of substance) of the same compound?
**A.** 126.0 mmHg

**Q.** And the Mean blood pressure (0.03 mg/kg, 11 hours after administration of substance)?
**A.** 119.8 mmHg

**Q.** What about the Mean blood pressure (0.03 mg/kg, 12 hours after administration of substance) of the same compound?
**A.** 134.4 mmHg

**Q.** And the Mean blood pressure (0.03 mg/kg, 13 hours after administration of substance)?
**A.** 130.0 mmHg

**Q.** And the Mean blood pressure (0.03 mg/kg, 14 hours after administration of substance)?
**A.** 131.4 mmHg

**Q.** And the Mean blood pressure (0.03 mg/kg, 15 hours after administration of substance)?
**A.** 133.6 mmHg

**Q.** And the Mean blood pressure (0.03 mg/kg, 16 hours after administration of substance)?
**A.** 120.6 mmHg

**Q.** What about the Mean blood pressure (0.03 mg/kg, 17 hours after administration of substance) of the same compound?
**A.** 135.4 mmHg

**Q.** And the Mean blood pressure (0.03 mg/kg, 18 hours after administration of substance)?
**A.** 131.6 mmHg

**Q.** And the Mean blood pressure (0.03 mg/kg, 19 hours after administration of substance)?
**A.** 123.2 mmHg

**Q.** What about the Mean blood pressure (0.03 mg/kg, 20 hours after administration of substance) of the same compound?
**A.** 123.4 mmHg

**Q.** What about the Mean blood pressure (0.03 mg/kg, 21 hours after administration of substance) of the same compound?
**A.** 125.4 mmHg

**Q.** What about the Mean blood pressure (0.03 mg/kg, 22 hours after administration of substance) of the same compound?
**A.** 134.2 mmHg

**Q.** And the Mean blood pressure (0.03 mg/kg, 23 hours after administration of substance)?
**A.** 132.0 mmHg

**Q.** And the Mean blood pressure (0.03 mg/kg, 24 hours after administration of substance)?
**A.** 126.8 mmHg

**Q.** What about the Mean blood pressure (0.3 mg/kg p.o., 0 hours after administration of substance) of the same compound?
**A.** 144.2 mmHg

**Q.** What about the Mean blood pressure (0.3 mg/kg p.o., 1 hours after administration of substance) of the same compound?
**A.** 128.5 mmHg

**Q.** And the Mean blood pressure (0.3 mg/kg p.o., 2 hours after administration of substance)?
**A.** 116.7 mmHg

**Q.** And the Mean blood pressure (0.3 mg/kg p.o., 3 hours after administration of substance)?
**A.** 112.8 mmHg

**Q.** What about the Mean blood pressure (0.3 mg/kg p.o., 4 hours after administration of substance) of the same compound?
**A.** 114.3 mmHg

**Q.** And the Mean blood pressure (0.3 mg/kg p.o., 5 hours after administration of substance)?
**A.** 109.3 mmHg

**Q.** And the Mean blood pressure (0.3 mg/kg p.o., 6 hours after administration of substance)?
**A.** 110.2 mmHg

**Q.** What about the Mean blood pressure (0.3 mg/kg p.o., 7 hours after administration of substance) of the same compound?
**A.** 113.5 mmHg

**Q.** What about the Mean blood pressure (0.3 mg/kg p.o., 8 hours after administration of substance) of the same compound?
**A.** 114.2 mmHg

**Q.** What about the Mean blood pressure (0.3 mg/kg p.o., 9 hours after administration of substance) of the same compound?
**A.** 114.5 mmHg

**Q.** And the Mean blood pressure (0.3 mg/kg p.o., 10 hours after administration of substance)?
**A.** 109.5 mmHg

**Q.** And the Mean blood pressure (0.3 mg/kg p.o., 11 hours after administration of substance)?
**A.** 118.2 mmHg

**Q.** And the Mean blood pressure (0.3 mg/kg p.o., 12 hours after administration of substance)?
**A.** 110.5 mmHg

**Q.** What about the Mean blood pressure (0.3 mg/kg p.o., 13 hours after administration of substance) of the same compound?
**A.** 115.5 mmHg

**Q.** And the Mean blood pressure (0.3 mg/kg p.o., 14 hours after administration of substance)?
**A.** 117.8 mmHg

**Q.** What about the Mean blood pressure (0.3 mg/kg p.o., 15 hours after administration of substance) of the same compound?
**A.** 114.5 mmHg

**Q.** What about the Mean blood pressure (0.3 mg/kg p.o., 16 hours after administration of substance) of the same compound?
**A.** 118.2 mmHg

**Q.** And the Mean blood pressure (0.3 mg/kg p.o., 17 hours after administration of substance)?
**A.** 122.7 mmHg

**Q.** And the Mean blood pressure (0.3 mg/kg p.o., 18 hours after administration of substance)?
**A.** 127.8 mmHg

**Q.** What about the Mean blood pressure (0.3 mg/kg p.o., 19 hours after administration of substance) of the same compound?
**A.** 121.0 mmHg

**Q.** And the Mean blood pressure (0.3 mg/kg p.o., 20 hours after administration of substance)?
**A.** 110.5 mmHg

**Q.** And the Mean blood pressure (0.3 mg/kg p.o., 21 hours after administration of substance)?
**A.** 113.3 mmHg

**Q.** What about the Mean blood pressure (0.3 mg/kg p.o., 22 hours after administration of substance) of the same compound?
**A.** 116.7 mmHg

**Q.** What about the Mean blood pressure (0.3 mg/kg p.o., 23 hours after administration of substance) of the same compound?
**A.** 115.7 mmHg

**Q.** And the Mean blood pressure (0.3 mg/kg p.o., 24 hours after administration of substance)?
**A.** 123.7 mmHg
